# Measurements from US11371077B2, “High throughput cell-based screening for aptamers” (MeiraGTx UK II Limited, priority 2016, dated 2022).
# Structures can show the parent of a compound that is named as a salt. Where two headings read alike, the source gives them in different places.
# Tests used:
# Assay type in all cases: cell-based
# [1] = test system: ydhl-A6 riboswitch; assay: Luciferase reporter assay, ydhl-A6 riboswitch, transfected HEK 293 cells; details: Homo sapiens
# Excerpt: (§1) A truncated human beta-globin intron sequence was synthesized and inserted in the coding sequence of a firefly luciferase gene. A mutant human DHFR exon 2 was synthesized and inserted in the middle of this truncated beta-globin intron sequence using Golden gate cloning strategy. Aptamers including xpt-G/A^1, ydhl-G/A^2, yxj^3, add^4, gdg6-G/A^5 (citations for the aptamers are incorporated herein by reference) were synthesized as oligonucleotides (“oligos”) with 4 nucleotide overhang at the 5′ end that are complementary to two different BsaI sites individually (IDT), annealed and ligated to BsaI-digested mDHFR-Luci-acceptor vector.
# (§2) 3.5×10^4 HEK 293 cells were plated in a 96-well flat bottom plate the day before transfection. Plasmid DNA (500 ng) was added to a tube or a 96-well U-bottom plate. […] Then, 50 μL of this diluted transfection reagent was added to the DNA, mixed, and incubated at RT for 20 min. Finally, 7 μL of this solution was added to a well of cells in the 96-well plate.
# (§3) 24 hours after media change, plates were removed from the incubator, and equilibrated to RT for several minutes on a lab bench, then aspirated. Glo-lysis buffer (Promega, 100 μL, RT) was added, and the plates maintained at RT for at least 5 minutes. Then, the well contents were mixed by 50 μL trituration, and 20 μL of each sample was mixed with 20 μL of bright-glo reagent (Promega) that had been diluted to 10% in glo-lysis buffer. 96 wells were spaced on an opaque white 384-well plate. Following a 5 min incubation at RT, luminescence was measured using a Tecan machine with 500 mSec read time. The luciferase activity was expressed as mean relative light unit (RLU)±S.D., and fold induction was calculated as the luciferase activity obtained with guanine treatment divided by luciferase activity obtained without guanine treatment.
# [2] = test system: add-A6 riboswitch; assay: cells; details: for fold induction at 100 µM: Homo sapiens
# Excerpt: (§4) Riboswitches were constructed as described in PCT/US2016/016234 (in particular Examples 3 to 6), incorporated herein by reference. A truncated human beta-globin intron sequence was synthesized and inserted in the coding sequence of a firefly luciferase gene. A mutant human DHFR exon 2 was synthesized and inserted in the middle of this truncated beta-globin intron sequence using Golden gate cloning strategy. Aptamers including xpt-G/A^1, ydhl-G/A^2, yxj^3, add^4, gdg6-G/A^5 (citations for the aptamers are incorporated herein by reference) were synthesized as oligonucleotides (“oligos”) with 4 nucleotide overhang at the 5′ end that are complementary to two different BsaI sites individually (IDT), annealed and ligated to BsaI-digested mDHFR-Luci-acceptor vector.
# (§5) 3.5×10^4 HEK 293 cells were plated in a 96-well flat bottom plate the day before transfection. Plasmid DNA (500 ng) was added to a tube or a 96-well U-bottom plate. Separately, TransIT-293 reagent (Mirus; 1.4 μL) was added to 50 μL Opti-mem I media (Life Technologies), and allowed to sit for 5 minutes at room temperature (RT). Then, 50 μL of this diluted transfection reagent was added to the DNA, mixed, and incubated at RT for 20 min. Finally, 7 μL of this solution was added to a well of cells in the 96-well plate.
# as §3
# [3] = test system: yxj-A6 riboswitch; assay: cells; details: for fold induction at 100 µM: Homo sapiens
# Excerpt: as §1, §5
# as §3, with “The luciferase activity was expressed as mean relative light unit (RLU)±S.D., and fold induction was calculated as the luciferase activity obtained with guanine treatment divided by luciferase activity obtained without guanine treatment.” left out
# [4] = test system: gdg6-A8 riboswitch; assay: Luciferase reporter assay, gdg6-A8 riboswitch, transfected HEK 293 cells; details: for fold induction at 100 µM: Homo sapiens, HEK293, gdg6-A8 riboswitch, Prestwick library compounds at 100 μM, HEK 293; for Fold Induction of luciferase activity: 100 µM
# Excerpt: as §4, §5, §3
# [5] = test system: add-G6 riboswitch; assay: cells; details: for fold induction at 100 µM: Homo sapiens
# Excerpt: as §1, §2
# as §3, with “The luciferase activity was expressed as mean relative light unit (RLU)±S.D., and fold induction was calculated as the luciferase activity obtained with guanine treatment divided by luciferase activity obtained without guanine treatment.” left out
# [6] = test system: gdg6-G8 riboswitch; assay: Luciferase reporter assay, gdg6-G8 riboswitch, transfected HEK 293 cells; details: for Fold Induction of luciferase activity: 100 µM; for fold induction at 100 µM: Homo sapiens, HEK293, gdg6-G8 riboswitch, Prestwick library compounds at 100 μM, HEK 293
# Excerpt: as §4, §5, §3
# [7] = test system: xpt-G17 riboswitch; assay: Luciferase reporter assay, xpt-G17 riboswitch, transfected HEK 293 cells; details: Prestwick library compounds at 100 μM, HEK 293, preliminary screen; for fold induction at 100 µM: Homo sapiens, HEK293, xpt-G17 riboswitch; for Fold Induction of luciferase activity: xpt-G17 riboswitch
# Excerpt: as §1, §5, §3
# [8] = test system: xpt-A8 riboswitch; assay: cells; details: for fold induction at 100 µM: Homo sapiens
# Excerpt: as §4, §5, §3
# [9] = test system: ydhl-G8 riboswitch; assay: Luciferase reporter assay, ydhl-G8 riboswitch, transfected HEK 293 cells; details: ydhl-G8 riboswitch, Prestwick library compounds at 100 μM, HEK 293
# Excerpt: as §1, §2, §3
# [10] = HEK293, read-out: Fold Induction of luciferase activity, ydhl-A6 riboswitch, Prestwick library compounds at 100 μM, HEK 293
# [11] = HEK293, add-A6 riboswitch, Prestwick library compounds at 100 μM, HEK 293, read-out: Fold Induction of luciferase activity
# [12] = HEK293, yxj-A6 riboswitch, Prestwick library compounds at 100 μM, HEK 293, read-out: Fold Induction of luciferase activity
# [13] = add-A6 riboswitch, Prestwick library compounds at 100 μM, HEK 293
# [14] = add-G6 riboswitch, Prestwick library compounds at 100 μM, HEK 293
# [15] = yxj-A6 riboswitch, Prestwick library compounds at 100 μM, HEK 293
# [16] = HEK293, read-out: Fold Induction of luciferase activity
# [17] = HEK293, add-G6 riboswitch, Prestwick library compounds at 100 μM, HEK 293, read-out: Fold Induction of luciferase activity
compound,measurement,setting,value
CNC1(C)C2CCC(C2)C1(C)C (centres unmarked) [Mecamylamine hydrochloride],fold induction at 100 µM,[1]; [10],3.2
Nc1ccc(S(=O)(=O)Nc2cnc3ccccc3n2)cc1 [Sulfaquinoxaline sodium],fold induction at 100 µM,[2]; [11],3.3
same,fold induction at 100 µM,[3]; [12],3.4
C=CC[N@@+]12CC[C@@]34c5ccccc5N5/C=C6/[C@H]7C[C@H]8[C@@]9(CC[N@@+]8(CC=C)C/C7=C/CO)c7ccccc7N(/C=C(/[C@@H](C[C@@H]31)/C(=C\CO)C2)[C@H]54)[C@@H]69.[Cl-].[Cl-] [Alcuronium chloride],Fold Induction of luciferase activity,[2]; [13],4.2 fold
OCCN1CCN(CCCN2c3ccccc3C=Cc3ccccc32)CC1 [Opipramol dihydrochloride],fold induction at 100 µM,[2]; [11],4.3
same,fold induction at 100 µM,[4],3.1
O=C(CCCN1CCC(n2c(O)nc3ccccc32)CC1)c1ccc(F)cc1 [Benperidol],fold induction at 100 µM,[1]; [10],3.1
Trimipramine maleate salt,Fold Induction of luciferase activity,[2]; [13],3.4 fold
same,Fold Induction of luciferase activity,[5]; [14],3.4 fold
same,Fold Induction of luciferase activity,[3]; [15],3.3 fold
same,Fold Induction of luciferase activity,[6],3.3 fold
same,Fold Induction of luciferase activity,[4],5.3 fold
NS(=O)(=O)c1cc2c(cc1Cl)NCNS2(=O)=O [Hydrochlorothiazide],fold induction at 100 µM,[1]; [10],3.3
CN(C)CCCN1c2ccccc2Sc2ccccc21 [Promazine hydrochloride],fold induction at 100 µM,[7],3.7
same,fold induction at 100 µM,[8]; [16],4.1
same,fold induction at 100 µM,[2]; [16],10.5
same,fold induction at 100 µM,[5]; [16],5.4
same,fold induction at 100 µM,"[9]; Homo sapiens, HEK293, read-out: Fold Induction of luciferase activity",5.2
same,fold induction at 100 µM,[3]; [16],6.6
same,fold induction at 100 µM,[6],6.2
same,fold induction at 100 µM,[4],12.6
CN1CCC(=C2c3ccccc3Sc3ccccc32)CC1 [Pimethixene maleate],fold induction at 100 µM,[7],4.7
same,fold induction at 100 µM,"[8]; HEK293, xpt-A8 riboswitch, Prestwick library compounds at 100 μM, HEK 293, read-out: Fold Induction of luciferase activity",3.3
same,fold induction at 100 µM,[2]; [11],4.2
same,fold induction at 100 µM,[5]; [17],6.6
same,fold induction at 100 µM,[3]; [12],4.9
same,fold induction at 100 µM,[6],5.1
same,fold induction at 100 µM,[4],9.2
thioguanosine,Fold Induction of luciferase activity,[7],21.0 fold
same,Fold Induction of luciferase activity,"[8]; xpt-A8 riboswitch, Prestwick library compounds at 100 μM, HEK 293",11.8 fold
same,Fold Induction of luciferase activity,[2]; [13],5.9 fold
same,Fold Induction of luciferase activity,[5]; [14],7.9 fold
same,Fold Induction of luciferase activity,[9],7.5 fold
same,Fold Induction of luciferase activity,[3]; [15],10.2 fold
same,Fold Induction of luciferase activity,[6],15.9 fold
same,Fold Induction of luciferase activity,[4],20.1 fold
COC1=C(OC)C(=O)C(CCCCCCCCCCO)=C(C)C1=O [Idebenone],fold induction at 100 µM,[7],3.3
same,fold induction at 100 µM,[5]; [17],6.7
same,fold induction at 100 µM,[1]; [16],3.5
CCOC(=O)Nc1ccc2c(c1)N(C(=O)CCN1CCOCC1)c1ccccc1S2 [Moricizine hydrochloride],fold induction at 100 µM,[1]; [16],10.3
Trimeprazine tartrate,Fold Induction of luciferase activity,[7],4.9 fold
same,Fold Induction of luciferase activity,[2]; [13],4.0 fold
same,Fold Induction of luciferase activity,[5]; [14],6.2 fold
same,Fold Induction of luciferase activity,[9],5.0 fold
same,Fold Induction of luciferase activity,[3]; [15],7.0 fold
same,Fold Induction of luciferase activity,[6],6.2 fold
same,Fold Induction of luciferase activity,[4],8.7 fold
